Assay results taken from patent US20140303092A1 (CHIMERIX, INC., priority 2011, published 2014).

Assay: Study HDP-CDV-201: safety and tolerability (adverse events, laboratory abnormalities, discontinuations)
Assay type: in vivo, human (adult allogeneic HSCT recipients)
Description: Clinical Studies of HDP-CDV were performed and described in detail in the following Examples. For example, HDP-CDV-201 is a placebo-controlled, dose-escalating trial in HSCT CMV (R+) recipients, evaluating the ability of HDP-CDV to prevent or control CMV infection was carried out. Five cohorts were established in which participants or subjects received either placebo or the HDP-CDV orally, in doses ranging from 40 mg weekly (QW) to 200 mg twice weekly (BIW). Subjects who were post-HSCT were enrolled at the time of engraftment and randomized to HDP-CDV or placebo (3 to 1 ratio) and received blinded therapy until approximately 100 day post-transplantation. HDP-CDV doses were 40 mg QW, 100 mg QW, 200 mg QW, 200 mg BIW and 100 mg BIW. Escalation to the next dose was decided by the data monitoring committee after review of the safety data from the previous Cohort. Subjects who developed CMV disease or CMV infection requiring pre-emptive therapy with local standard of care were discontinued from blinded therapy and followed for 4 weeks. Subjects who completed treatment with blinded therapy were followed for 8 weeks post-therapy.
Data from Study HDP-CDV-201 also provided characterization of the safety and tolerability profile of HDP-CDV when administered for the prevention or control of CMV infection in high risk (R^+) post-HSCT adult subjects.
The Safety population (SAFETY) included all randomized subjects who took at least one dose of study treatment. This population was used to summarize safety outcomes based on the treatment actually received, in cases where a subject was treated contrary to the randomization schedule.
The safety and tolerability profile of HDP-CDV, including subject demographics and Baseline characteristics; the AE profile; and laboratory abnormalities of interest were analyzed in the cohorts followed in this investigation.
Subjects completing the treatment period received a full course of study medication; those completing the entire study attended visits through 8 weeks of follow up. Subjects who discontinued treatment may have done so for protocol specified reasons (e.g. development of clinically significant CMV infection requiring preemptive treatment with excluded anti-CMV medications) or for other reasons (e.g., withdrawal, adverse events, loss to follow-up). The disposition of subjects in Study HDP-CDV-201 during the double-blind, placebo-controlled treatment period (through Week 11) is listed by dosing Cohort in TABLE 23.
Adverse events were examined by severity to ensure that all safety signals were identified in this study population. Because of the frequency of events in HSCT recipients, particular attention was given to evaluation of Grade 3 […], 4 (severe), and 5 (fatal) adverse events.
Only those preferred terms for which at least one Grade 3 or higher event was experienced in any treatment group are listed. Cytomegalovirus-related AEs are excluded from this analysis.
HDP-CDV is a lipid conjugate of CDV. Because CDV is known to have adverse effects on renal function and bone marrow, decreased GFR and persistent neutropenia were identified as AEs of special interest. Key renal and hematological (TABLE 30) laboratory parameters were measured and listed below by Study HDP-CDV-201 treatment groups. TABLE 30 includes abnormal levels of serum creatinine, neutrophils, platelets, WBCs, and hemoglobin and includes data at Screening and during the treatment period.
A common metric for unit based dosing of medications is by weight (mg/kg). When the distribution of weights was examined for all subjects participating in the study, the median was 78 kg and the lower 25th percentile weight was approximately 65 kg, which translates to a cut-off of ˜3 mg/kg for a 200 mg total weekly dose. Based upon this approach, a cut-off of 3 mg/kg was used to assess the frequency of diarrhea and associated GI AEs reported for the subjects in Cohorts 3 or 4a (TABLE 40).

[1] = Cohort 4, 200 mg BIW, through Week 11

For CCCCCCCCCCCCCCCCOCCCOP(=O)(O)COC(CO)Cn1ccc(N)nc1=O (stereo not shown) [HDP-CDV], the “Dyspepsia leading to study drug withdrawal” value (Cohort 4, 200 mg BIW, N = 30) was 0%, the “Nausea leading to study drug withdrawal” value (Cohort 4, 200 mg BIW, N = 30) was 1 (3.3%) and the “TEAE ALT increased” value (Cohort 4, 200 mg BIW, N = 30) was 10 (33.3%) n (%). For the same compound, the “TEAE AST increased” value (Cohort 4, 200 mg BIW, N = 30) was 7 (23.3%) n (%), the “TEAE Abdominal pain” value (Cohort 4, 200 mg BIW, N = 30) was 11 (36.7%) n (%) and the “TEAE Abdominal pain, Upper” value (Cohort 4, 200 mg BIW, N = 30) was 3 (10.0%) n (%). The “TEAE Acute GVHD” value (Cohort 4, 200 mg BIW, N = 30) was 24 (80.0%) n (%), the “TEAE Acute Myeloid Leukemia recurrent” value (Cohort 4, 200 mg BIW, N = 30) was 0 n (%) and the “TEAE Acute Renal Failure” value (Cohort 4, 200 mg BIW, N = 30) was 3 (10.0%) n (%). The “TEAE Anxiety” value (Cohort 4, 200 mg BIW, N = 30) was 2 (6.7%) n (%), the “TEAE Arthralgias” value (Cohort 4, 200 mg BIW, N = 30) was 1 (3.3%) n (%) and the “TEAE Back Pain” value (Cohort 4, 200 mg BIW, N = 30) was 3 (10.0%) n (%). The “TEAE Blood lactate dehydrogenase increased” value (Cohort 4, 200 mg BIW, N = 30) was 3 (10.0%) n (%), the “TEAE Creatinine increased” value (Cohort 4, 200 mg BIW, N = 30) was 2 (6.7%) n (%) and the “TEAE Cytomegalovirus viremia” value (Cohort 4, 200 mg BIW, N = 30) was 5 (16.7%) n (%). For the same compound, the “TEAE Decreased appetite” value (Cohort 4, 200 mg BIW, N = 30) was 5 (16.7%) n (%), the “TEAE Diarrhoea” value (Cohort 4, 200 mg BIW, N = 30) was 21 (70.0%) n (%) and the “TEAE Dysgeusia” value (Cohort 4, 200 mg BIW, N = 30) was 3 (10.0%) n (%). For the same compound, the “TEAE Fatigue” value (Cohort 4, 200 mg BIW, N = 30) was 0 n (%), the “TEAE GI Reflux Disease” value (Cohort 4, 200 mg BIW, N = 30) was 2 (6.7%) n (%) and the “TEAE Gamma-glutamyltransferase increased” value (Cohort 4, 200 mg BIW, N = 30) was 3 (10.0%) n (%). For the same compound, the “TEAE Generalized oedema” value (Cohort 4, 200 mg BIW, N = 30) was 3 (10.0%) n (%), the “TEAE Hyperbilirubinaemia” value (Cohort 4, 200 mg BIW, N = 30) was 5 (16.7%) n (%) and the “TEAE Hyperglycaemia” value (Cohort 4, 200 mg BIW, N = 30) was 8 (26.7%) n (%). For the same compound, the “TEAE Hyperkalemia” value (Cohort 4, 200 mg BIW, N = 30) was 3 (10.0%) n (%), the “TEAE Hypocalcaemia” value (Cohort 4, 200 mg BIW, N = 30) was 3 (10.0%) n (%) and the “TEAE Hypokalaemia” value (Cohort 4, 200 mg BIW, N = 30) was 5 (16.7%) n (%). For the same compound, the “TEAE Hyponatraemia” value (Cohort 4, 200 mg BIW, N = 30) was 2 (6.7%) n (%), the “TEAE Increased leukocytosis” value (Cohort 4, 200 mg BIW, N = 30) was 3 (10.0%) n (%) and the “TEAE Insomnia” value (Cohort 4, 200 mg BIW, N = 30) was 2 (6.7%) n (%). The “TEAE Liver function test abnormal” value (Cohort 4, 200 mg BIW, N = 30) was 3 (10.0%) n (%), the “TEAE Malnutrition” value (Cohort 4, 200 mg BIW, N = 30) was 3 (10.0%) n (%) and the “TEAE Nausea” value (Cohort 4, 200 mg BIW, N = 30) was 11 (36.7%) n (%). The “TEAE Neutropenia” value (Cohort 4, 200 mg BIW, N = 30) was 4 (13.3%) n (%), the “TEAE Oedema peripheral” value (Cohort 4, 200 mg BIW, N = 30) was 3 (10.0%) n (%) and the “TEAE Oral Candidiasis” value (Cohort 4, 200 mg BIW, N = 30) was 1 (3.3%) n (%). For the same compound, the “TEAE Pneumonia” value (Cohort 4, 200 mg BIW, N = 30) was 1 (3.3%) n (%), the “TEAE Pyrexia” value (Cohort 4, 200 mg BIW, N = 30) was 2 (6.7%) n (%) and the “TEAE Recurrent flatulence” value (Cohort 4, 200 mg BIW, N = 30) was 3 (10.0%) n (%). The “TEAE Renal Failure” value (Cohort 4, 200 mg BIW, N = 30) was 0 n (%), the “TEAE Staphylococcal Bacteremia” value (Cohort 4, 200 mg BIW, N = 30) was 1 (3.3%) n (%) and the “TEAE Thrombocytopenia” value (Cohort 4, 200 mg BIW, N = 30) was 5 (16.7%) n (%). The “TEAE Tremor” value (Cohort 4, 200 mg BIW, N = 30) was 2 (6.7%) n (%), the “TEAE Vomiting” value (Cohort 4, 200 mg BIW, N = 30) was 8 (26.7%) n (%) and the “Vomiting leading to study drug withdrawal” value (Cohort 4, 200 mg BIW, N = 30) was 0%. The “All AEs, Grade 5 (deaths)” value (Cohort 4, 200 mg BIW, N = 30, entire study duration) was 4 (13.3%), the Subjects completed treatment [1] was 7 (23.3%) n (%) and the “Subjects who permanently discontinued treatment” value [1] was 23 (76.7%) n (%). The “Grade of hepatobiliary AE hyperbilirubinemia, subject 4042” value (Cohort 4, drug interrupted) was 1, the “Outcome of hepatobiliary AE hyperbilirubinemia, subject 4042” value (Cohort 4, drug interrupted) was “recovered/resolved” and the “Relationship of hepatobiliary AE hyperbilirubinemia, subject 4042” value (Cohort 4, drug interrupted) was “not related”. For the same compound, the “Grade of hepatobiliary AE acute liver injury, subject 4008” value (Cohort 4, drug withdrawn) was 3, the “Outcome of hepatobiliary AE acute liver injury, subject 4008” value (Cohort 4, drug withdrawn) was “recovered/resolved” and the “Relationship of hepatobiliary AE acute liver injury, subject 4008” value (Cohort 4, drug withdrawn) was “possibly related”. For the same compound, the “subjects discontinued due to neutropenia” value (Cohort 4A) was 1 subject(s).
